These results are taken from ChEMBL document CHEMBL1201862, “PubChem BioAssay data set” (2004).

Each structure is given as a SMILES string. Active and inactive are the calls of the source.

Test [1] can be described thus: Luminescence Cell-Based Dose Response HTS to Identify Inhibitors of 5'UTR Stem-Loop Driven Prion Protein mRNA Translation in H4 Neuroglioblastoma Cells. [Related pubchem assays: 1827 (Project Summary), 1813 (Primary HTS)]. The format is functional.
Test [2] can be described thus: cells.
Test [3] has as its target T1, Oxysterols receptor LXR-beta (Homo sapiens, UniProt P55055).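 Note: Cell-based luminescence dose-response assay of agonist activity at LXR, run as a confirmatory counterscreen to a daf-12 agonist screen; HEK293 cells with Gal4-LXR fusion and GAL4-driven luciferase reporter; agonist potency from rising luciferase signal of a Gal4-LXR reporter.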
T1 sequence (P55055 whole entry): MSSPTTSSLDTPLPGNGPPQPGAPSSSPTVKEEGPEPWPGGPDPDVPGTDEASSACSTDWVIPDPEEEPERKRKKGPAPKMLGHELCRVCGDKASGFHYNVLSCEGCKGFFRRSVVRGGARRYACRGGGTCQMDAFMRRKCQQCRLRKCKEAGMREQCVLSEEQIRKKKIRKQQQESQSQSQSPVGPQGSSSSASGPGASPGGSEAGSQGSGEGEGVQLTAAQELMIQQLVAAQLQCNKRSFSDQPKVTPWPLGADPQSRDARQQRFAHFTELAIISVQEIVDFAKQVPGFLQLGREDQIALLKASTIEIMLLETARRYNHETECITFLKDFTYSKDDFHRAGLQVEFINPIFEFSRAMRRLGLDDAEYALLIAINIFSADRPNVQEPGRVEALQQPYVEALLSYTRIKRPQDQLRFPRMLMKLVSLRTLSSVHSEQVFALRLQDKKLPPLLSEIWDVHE
The format is functional, cell-based.

A short description of test [4]: HEK293 Cytotoxicity Assay Measured in Cell-Based System Using Plate Reader - 7071-01_Inhibitor_Dose_CherryPick_Activity_Set2. The format is functional.
The subject of the next test is HEK293. The test can be described thus: HEK293T cell cytotoxicity, dose response, cytotoxicity control, ATP luminescence, cherry-pick samples (AID 687005).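 Note: cells exposed to compound for 48 hours.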 The conditions noted are these: Homo sapiens. The format is functional, cell-based.
Test [5] is described as follows: A375 melanoma cell cytotoxicity, dose response, counter-screen for MITF inhibitor project, CellTiter-Glo luminescence, dry powder, set 2 (AID 624489).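 Note: actives are compounds lowering A375 viability meaning general cytotoxicity.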 The format is functional, cell-based. The conditions noted are these: A-375. (In general: Counterscreens check selectivity or assay interference.)
A short description of test [6]: A375 melanoma cell viability loss, dose response, counter-screen for MITF inhibitor project, CellTiter-Glo luminescence, dry powder, set 4 (AID 624364).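 Note: A375 melanoma cells are MITF independent so this is a counter screen.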 The conditions noted are these: A-375. The format is functional, cell-based.
A short description of test [7]: ADAM10 protease inhibitors, dose response, selectivity assay for ADAM17 exosite inhibitor project, biochemical, FRET peptide substrate, recombinant human ADAM10 (AID 743259).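 Note: ADAM10 enzyme cleaving a FRET peptide substrate.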
Test [8] relates to Vero. Kind of test: cells. The format is functional. The conditions noted are these: Chlorocebus sabaeus.
The nature of test [9]: inhibitors of SNCA 5'UTR-driven reporter translation, confirmation, H4 neuroglioma cells, luminescence (AID 1988). The format is functional, cell-based.
Test [10] can be described thus: inhibitors of firefly luciferase expression or activity, dose response, H4 neuroglioma cells, luminescence (AID 1990). The format is functional, cell-based.
Test [11] concerns the target Disintegrin and metalloproteinase domain-containing protein 17 (Homo sapiens, UniProt P78536). Kind of test: exosite inhibitors of ADAM17, dose response, biochemical (AID 743260).
The nature of test [12]: HEp-2 cell cytotoxicity, dose response, cytotoxicity control for RSV inhibitor project, HTS (AID 2410). The format is functional. The conditions noted are these: human respiratory syncytial virus.
For test [13], the system named is Vero. The test can be described thus: cells. The conditions noted are these: Chlorocebus sabaeus. The format is functional, cell-based.
A short description of test [14]: cells. The format is functional, cell-based.
A short description of test [15]: IGROV1 ovarian cancer cell cytotoxicity, dose response, PAX8 inhibitor project, plate reader, dry powder samples (AID 743043). The format is functional, cell-based. The conditions noted are these: IGROV-1.
Test [16] can be described thus: cytotoxicity in OVCAR4 cells, dose response, cytotoxicity control for PAX8 inhibitor project, cell-based, plate reader, dry powder, SA11 (AID 743150). The format is functional. The conditions noted are these: OVCAR-4.
Test [17] in a line: NIH:OVCAR-3 ovarian cancer cell cytotoxicity, dose response, PAX8 inhibitor project, plate reader, dry powder samples (AID 743044). The format is functional, cell-based.
Test [18] can be described thus: cytotoxicity in OV-90 ovarian cancer cells, dose response, PAX8 inhibitor project, cell-based, plate reader, dry powder, SA8 (AID 743149). The format is functional.
Test [19] is described as follows: cytotoxicity in COV362 ovarian cancer cells, dose response, cytotoxicity control for PAX8 inhibitor project, cell-based, plate reader, dry powder, SA12 (AID 743144). The format is functional.
A short description of test [20]: Shn3 3'UTR reporter inhibitors, dose response, cell-based, Clone20 osteoblasts, firefly luciferase, cherry-picked (AID 624132).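 Note: firefly luciferase luminescence from reporter carrying the Shn3 3'UTR in osteoblasts.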 The format is functional.
Test [21] can be described thus: cytotoxicity dependent on PAX8, dose response, cell-based, plate reader, dry powder (AID 743049). The format is functional.
The target of the next test is Paired box protein Pax-8 (Homo sapiens, UniProt Q06710). Kind of test: inhibitors of PAX8-driven TPO luciferase reporter, dose response, RMG-I cells, cherry-pick (AID 687027).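 Note: luciferase reporter driven by Pax8 target thyroperoxidase promoter measured by SteadyGlo luminescence.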 The format is functional, cell-based. A general note: A reporter such as luciferase makes a cellular process visible.
Paired box protein Pax-8, sequence (Q06710 whole entry): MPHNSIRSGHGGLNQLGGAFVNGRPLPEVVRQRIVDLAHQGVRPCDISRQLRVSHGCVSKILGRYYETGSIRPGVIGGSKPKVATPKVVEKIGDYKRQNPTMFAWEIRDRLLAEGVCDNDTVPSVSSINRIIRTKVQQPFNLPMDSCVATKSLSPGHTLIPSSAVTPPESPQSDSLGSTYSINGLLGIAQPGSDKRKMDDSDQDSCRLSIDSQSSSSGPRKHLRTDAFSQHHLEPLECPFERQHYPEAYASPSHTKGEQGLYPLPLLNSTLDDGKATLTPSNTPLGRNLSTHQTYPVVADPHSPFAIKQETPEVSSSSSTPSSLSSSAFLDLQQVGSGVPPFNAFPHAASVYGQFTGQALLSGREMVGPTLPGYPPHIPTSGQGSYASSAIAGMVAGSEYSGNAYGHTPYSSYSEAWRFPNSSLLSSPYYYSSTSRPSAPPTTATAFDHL
A short description of test [22]: PAX2 cell-based inhibition, dose response, selectivity assay for PAX8 inhibitor project, plate reader, dry powder samples (AID 743048).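 Note: HEK293 cells carrying a WT1 promoter luciferase reporter driven by expressed Pax2; potency is for inhibition of Pax2 driven reporter signal.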 The format is functional.
Test [23] in a line: HepG2 cell cytotoxicity, dose response, cytotoxicity control for Shn3 inhibitor project, CellTiter-Glo, cherry-picked (AID 624134). The format is functional, cell-based. For orientation: Cellular ATP, detected with luciferase, serves as a proxy for viable cell number.
A short description of test [24]: cytotoxicity in COV434 cells, dose response, cytotoxicity control for PAX8 inhibitor project, cell-based, plate reader, dry powder, SA7 (AID 743145). The format is functional.
Test [25] is described as follows: cells. The format is functional, cell-based. This is another data set of the same source.
Test [26] in a line: control 3'UTR Renilla luciferase suppression, dose response, counter-screen for Shn3 inhibitor project, cell-based, Clone20-Shn3RL, cherry-picked (AID 624133). The format is functional.
Test [27] can be described thus: A2780 ovarian cancer cell cytotoxicity, dose response, cytotoxicity control, plate reader, dry powder samples (AID 743046). The format is functional, cell-based.
Test [28] in a line: A549 cell cytotoxicity, dose response, cytotoxicity control, plate reader, cherry-pick, antagonist series (AID 743412). The format is functional, cell-based.
Test [29] in a line: LGR2 antagonists, dose response, cell-based, HEK293, CRE-luciferase reporter, cherry pick, set 2 (AID 743343).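 Note: transfected cells were stimulated with diluted bursicon conditioned medium after compound addition.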 The format is functional.
Test [30] addresses T2, Microphthalmia-associated transcription factor (Homo sapiens, UniProt O75030).
T2 sequence (O75030 whole entry): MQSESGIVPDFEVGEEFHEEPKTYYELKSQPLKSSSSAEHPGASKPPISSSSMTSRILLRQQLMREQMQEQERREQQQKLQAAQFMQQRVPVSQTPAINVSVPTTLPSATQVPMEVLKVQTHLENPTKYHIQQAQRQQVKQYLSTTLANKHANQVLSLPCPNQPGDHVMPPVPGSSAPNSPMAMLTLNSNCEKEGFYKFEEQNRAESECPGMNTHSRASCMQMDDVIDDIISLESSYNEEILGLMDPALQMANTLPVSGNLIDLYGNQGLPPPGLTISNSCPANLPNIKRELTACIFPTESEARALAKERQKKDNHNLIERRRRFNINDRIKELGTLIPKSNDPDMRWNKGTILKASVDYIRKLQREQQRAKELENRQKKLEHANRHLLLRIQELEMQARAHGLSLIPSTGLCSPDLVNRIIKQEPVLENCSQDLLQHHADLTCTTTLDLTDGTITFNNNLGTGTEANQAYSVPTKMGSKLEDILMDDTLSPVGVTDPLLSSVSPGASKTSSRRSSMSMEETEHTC
Kind of test: TRPM1 promoter luciferase signal decrease, dose response, MITF inhibitor project, cell-based, SK-MEL-5, cherry-picked, set 3 (AID 493073).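 Note: SK-MEL-5 melanoma cells with luciferase driven by the MITF target TRPM1 promoter.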 The format is functional.

A short description of test [31]: HepG2 cell cytotoxicity, dose response, cytotoxicity control, plate reader, cherry-pick, antagonist series (AID 743416). The format is functional, cell-based.
The target in test [32] is T3, Rac GTPase-activating protein 1 (Homo sapiens, UniProt Q9H0H5).
T3 sequence (Q9H0H5 whole entry): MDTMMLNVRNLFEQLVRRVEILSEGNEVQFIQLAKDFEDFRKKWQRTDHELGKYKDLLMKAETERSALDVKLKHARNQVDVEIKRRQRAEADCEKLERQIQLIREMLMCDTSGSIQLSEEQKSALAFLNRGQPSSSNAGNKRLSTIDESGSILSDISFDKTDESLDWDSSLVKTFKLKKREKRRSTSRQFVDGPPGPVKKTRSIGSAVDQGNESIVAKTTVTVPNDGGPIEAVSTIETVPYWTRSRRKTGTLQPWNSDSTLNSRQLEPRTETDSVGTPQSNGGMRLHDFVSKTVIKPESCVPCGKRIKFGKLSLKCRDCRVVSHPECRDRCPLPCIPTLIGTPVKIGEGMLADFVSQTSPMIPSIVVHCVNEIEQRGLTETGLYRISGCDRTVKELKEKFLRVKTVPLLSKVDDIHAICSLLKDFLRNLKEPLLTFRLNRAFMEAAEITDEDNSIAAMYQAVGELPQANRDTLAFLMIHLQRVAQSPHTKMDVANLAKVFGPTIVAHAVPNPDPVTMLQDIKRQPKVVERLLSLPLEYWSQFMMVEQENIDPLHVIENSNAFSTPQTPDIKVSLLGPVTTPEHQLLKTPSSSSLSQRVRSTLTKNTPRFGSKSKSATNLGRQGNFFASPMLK
Kind of test: MgcRacGAP GTPase-activating activity inhibitors, confirmation, biochemical, ADP Hunter fluorescence, primary and confirmatory (AID 624330). The format is functional.

Test [33] is described as follows: MC4R antagonists, dose response, counter-screen for LGR2 antagonist project, cell-based, plate reader, cherry pick (AID 743444).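 Note: transfected HEK 293 cells stimulated with alpha-MSH peptide; potency of inhibitors of the alpha-MSH evoked signal.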 The format is functional.

Disintegrin and metalloproteinase domain-containing protein 17, sequence (P78536 whole entry, the tested form may be a part): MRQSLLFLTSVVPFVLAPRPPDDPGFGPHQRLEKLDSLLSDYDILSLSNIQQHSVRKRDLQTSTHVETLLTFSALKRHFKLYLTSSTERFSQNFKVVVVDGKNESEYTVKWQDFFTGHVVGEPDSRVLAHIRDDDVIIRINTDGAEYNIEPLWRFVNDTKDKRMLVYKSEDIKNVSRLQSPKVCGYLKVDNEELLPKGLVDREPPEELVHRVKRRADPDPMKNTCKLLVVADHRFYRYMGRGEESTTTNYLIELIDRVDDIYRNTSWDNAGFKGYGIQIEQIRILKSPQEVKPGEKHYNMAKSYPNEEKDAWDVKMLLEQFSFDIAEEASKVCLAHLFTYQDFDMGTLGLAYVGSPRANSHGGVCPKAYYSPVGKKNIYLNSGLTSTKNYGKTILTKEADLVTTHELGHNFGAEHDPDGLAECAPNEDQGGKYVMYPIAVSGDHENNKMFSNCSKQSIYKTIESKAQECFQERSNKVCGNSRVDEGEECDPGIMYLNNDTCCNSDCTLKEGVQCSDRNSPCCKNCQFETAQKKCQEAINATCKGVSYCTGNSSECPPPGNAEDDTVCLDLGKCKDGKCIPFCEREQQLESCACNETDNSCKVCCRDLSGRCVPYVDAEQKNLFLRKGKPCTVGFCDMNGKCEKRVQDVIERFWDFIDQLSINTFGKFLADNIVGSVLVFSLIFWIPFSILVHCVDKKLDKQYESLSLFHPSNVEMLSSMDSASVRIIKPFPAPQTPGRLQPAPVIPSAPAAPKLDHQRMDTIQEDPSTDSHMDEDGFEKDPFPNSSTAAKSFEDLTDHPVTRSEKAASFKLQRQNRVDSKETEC

For the molecule `Cn1c(=N)n(CC(=O)c2ccccc2)c2ccccc21`, the concentration for a half-maximal effect (EC50) (as a rule, the concentration at which the effect is half-maximal) is 8.25 µM (inconclusive) in test [1], > 67.5 µM (inactive) in “cells [2]” and > 67.5 µM (inactive) in test [3].
For the molecule `CC(NC(=O)COc1ccccc1C(C)(C)C)c1ccccc1` (centres undefined), the AC50 (in test [4]; in the test with HEK293) was 51.4 µM (active) throughout.
`CC(=O)NC1=C(c2ccccc2)C(=O)c2ccccc2C1=O`: the half-maximal activity concentration (AC50) (as a rule, the concentration at which the activity in the assay is half-maximal) in test [5] is 8.87 µM (active); in [6], 15.6 µM (active).
Turning to `COc1cc(/C=N/NC(=O)c2cc(-c3ccccc3OC(C)C)nc3ccccc23)ccc1O`, the EC50 in [1] was > 120 µM (not active); in [9], 13.7 µM (active); in test [10] it was > 120 µM (not active). Further, the IC50 (commonly the midpoint of a concentration-inhibition curve) is > 69.5 µM (inactive) in test [7], > 69.5 µM (inactive) in [11] and > 25 µM (active) with Vero [13]. For the same molecule, the CC50 (commonly the concentration at which the toxic effect on the cells reaches its halfway point) in the test with Vero [8] was > 25 µM (active); in test [12] it was 29.6 µM (active).
Take `Cc1cc(NC(=O)CCCS(=O)(=O)c2nc(-c3cccs3)cc(C(F)(F)F)n2)no1`: the concentration giving a half-maximal response (EC50) in “cells [14]” and in the test “cells [25]” was > 350 µM (not active) each time. The AC50 in test [15] was 16.4 µM (active); in test [16], 20.8 µM (active); in [17], 15.5 µM (active); in [18], 26.3 µM (active); in test [19] it was 14.3 µM (active); in test [20] it was 1.73 µM (active). The AC50 in test [21] was 18.6 µM (active); on Paired box protein Pax-8, 6.85 µM (active); in test [22], 17.3 µM (active); in [23], 16.3 µM (active); in test [24], 12.1 µM (active); in test [26], 6.46 µM (active). In addition, the concentration at half-maximal activity (AC50) in test [27] is 10.3 µM (active).
As to `O=C(O)c1cccc(N/N=C/c2cccs2)c1`, the AC50 is > 52 µM (inactive) in test [28]; 1.87 µM (active) in test [29]; 6.14 µM (active) on Paired box protein Pax-8; 1.51 µM (active) in test [30]; > 52 µM (inactive) in [31]; 2.41 µM (active) in test [33]. The EC50 (in “cells [2]”; in [3]) was > 67.5 µM (inactive) throughout. In addition, the IC50 in test [32] is 75.3 µM (active).
